Test results reported in ChEMBL document CHEMBL3124884, “Leporizines A-C: epithiodiketopiperazines isolated from an Aspergillus species” (J Nat Prod, 2013).
Calls of active or inactive are those of the source. The calls are words filed in the database; no cut-off is given here.

Key:
[1] = system: Cystic fibrosis transmembrane conductance regulator (Homo sapiens), P13569 [F508del]; assay: Activity at CFTR F508del mutant (unknown origin) expressed in Fischer rat thyroid epithelial cells co-expressing YFP-H148Q/I152L assessed as loss of baseline transepithelial resistance at 10 uM after 16 to 20 mins by conductance corrector assay; format: cell-based; details: Epithelial cell
Chain of Cystic fibrosis transmembrane conductance regulator (Homo sapiens), P13569 [F508del] (P13569 as listed by the source): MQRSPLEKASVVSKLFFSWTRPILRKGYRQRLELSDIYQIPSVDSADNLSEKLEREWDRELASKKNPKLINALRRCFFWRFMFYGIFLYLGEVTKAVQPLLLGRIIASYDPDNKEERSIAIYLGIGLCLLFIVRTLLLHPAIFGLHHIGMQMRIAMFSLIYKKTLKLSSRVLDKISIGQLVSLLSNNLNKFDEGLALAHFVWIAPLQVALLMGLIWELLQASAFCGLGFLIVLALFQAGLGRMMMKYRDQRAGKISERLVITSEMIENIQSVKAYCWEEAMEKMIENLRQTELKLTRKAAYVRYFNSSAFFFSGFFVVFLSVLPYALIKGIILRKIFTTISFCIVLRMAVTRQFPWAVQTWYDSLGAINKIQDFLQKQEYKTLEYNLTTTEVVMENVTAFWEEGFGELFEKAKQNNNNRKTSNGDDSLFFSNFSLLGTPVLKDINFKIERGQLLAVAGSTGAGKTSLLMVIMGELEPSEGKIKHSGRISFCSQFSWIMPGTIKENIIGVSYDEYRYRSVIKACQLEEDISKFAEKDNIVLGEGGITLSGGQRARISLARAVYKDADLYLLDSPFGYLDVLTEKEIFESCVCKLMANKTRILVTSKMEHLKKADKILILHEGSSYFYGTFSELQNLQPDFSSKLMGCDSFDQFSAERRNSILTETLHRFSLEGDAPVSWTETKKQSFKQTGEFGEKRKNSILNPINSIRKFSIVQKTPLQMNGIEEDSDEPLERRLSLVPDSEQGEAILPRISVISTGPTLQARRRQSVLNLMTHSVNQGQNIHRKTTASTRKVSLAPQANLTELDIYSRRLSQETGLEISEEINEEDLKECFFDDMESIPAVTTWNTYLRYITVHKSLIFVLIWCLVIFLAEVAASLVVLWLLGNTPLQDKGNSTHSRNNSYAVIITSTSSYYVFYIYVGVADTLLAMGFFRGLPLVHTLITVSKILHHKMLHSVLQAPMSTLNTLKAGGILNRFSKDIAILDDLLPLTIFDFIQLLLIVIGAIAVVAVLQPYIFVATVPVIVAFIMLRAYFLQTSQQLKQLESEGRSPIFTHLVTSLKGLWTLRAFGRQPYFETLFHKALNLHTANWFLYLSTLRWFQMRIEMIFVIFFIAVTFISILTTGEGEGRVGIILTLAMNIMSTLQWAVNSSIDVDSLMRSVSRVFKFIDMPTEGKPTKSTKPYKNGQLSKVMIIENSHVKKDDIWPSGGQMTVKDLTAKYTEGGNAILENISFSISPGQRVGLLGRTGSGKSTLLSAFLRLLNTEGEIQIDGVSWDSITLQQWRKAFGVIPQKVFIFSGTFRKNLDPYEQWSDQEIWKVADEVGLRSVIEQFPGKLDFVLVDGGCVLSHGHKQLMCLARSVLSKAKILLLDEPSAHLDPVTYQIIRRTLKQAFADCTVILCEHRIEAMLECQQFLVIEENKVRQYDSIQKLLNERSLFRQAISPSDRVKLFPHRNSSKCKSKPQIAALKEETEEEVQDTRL

[2] = system: Cystic fibrosis transmembrane conductance regulator (Homo sapiens), P13569 [F508del]; assay: Activity at CFTR F508del mutant (unknown origin) expressed in Fischer rat thyroid epithelial cells co-expressing YFP-H148Q/I152L assessed as forskolin/PG-01-induced increase in conductance reversible effect at 10 to 20 uM after 16 to 20 mins by conductance corrector assay in presence of CFInh-172; format: cell-based; details: Epithelial cell
HepG2 = assay: Cytotoxicity against human HepG2 cells; format: cell-based
[3] = system: Cystic fibrosis transmembrane conductance regulator (Homo sapiens), P13569 [F508del]; assay: Activity at CFTR F508del mutant (unknown origin) expressed in Fischer rat thyroid epithelial cells co-expressing YFP-H148Q/I152L assessed as loss of baseline transepithelial resistance at >5 uM after 16 to 20 mins by conductance corrector assay; format: cell-based; details: Epithelial cell
[4] = system: Cystic fibrosis transmembrane conductance regulator (Homo sapiens), P13569 [F508del]; assay: Activity at CFTR F508del mutant (unknown origin) expressed in Fischer rat thyroid epithelial cells co-expressing YFP-H148Q/I152L assessed as forskolin/PG-01-induced increase in conductance reversible effect at >5 uM after 16 to 20 mins by conductance corrector assay; format: cell-based; details: Epithelial cell
[5] = system: Cystic fibrosis transmembrane conductance regulator (Homo sapiens), P13569 [F508del]; assay: Activity at CFTR F508del mutant (unknown origin) expressed in Fischer rat thyroid epithelial cells co-expressing YFP-H148Q/I152L assessed as forskolin/PG-01-induced increase in conductance reversible effect at <= 5 uM after 16 to 20 hrs by conductance corrector assay; details: Epithelial cell
[6] = system: Cystic fibrosis transmembrane conductance regulator (Homo sapiens), P13569 [F508del]; assay: Activity at CFTR F508del mutant (unknown origin) expressed in Fischer rat thyroid epithelial cells co-expressing YFP-H148Q/I152L assessed as loss of baseline transepithelial resistance at 2.5 to 20 uM after 16 to 20 mins by conductance corrector assay; format: cell-based; details: Epithelial cell
[7] = system: Cystic fibrosis transmembrane conductance regulator (Homo sapiens), P13569 [F508del]; assay: Activity at CFTR F508del mutant (unknown origin) expressed in Fischer rat thyroid epithelial cells co-expressing YFP-H148Q/I152L assessed as forskolin/PG-01-induced increase in conductance reversible effect at 2.5 to 20 uM after 16 to 20 mins by conductance corrector assay; format: cell-based; details: Epithelial cell

Row | SMILES | Activity [1] | Activity [2] | Activity (HepG2) | Activity [3] | Activity [4] | Activity [5] | Activity [6] | Activity [7]
1 | COc1ccc(Cl)cc1Nc1nc(-c2sc(NC(=O)C(C)(C)C)nc2C)cs1 | Active |  |  |  |  |  |  | 
2 | C[C@@H]1OC2=C(C(=O)C3(O)C(C2)N2C(=O)[C@@]45SSS[C@@]2(C(=O)N4[C@H]2Nc4ccccc4C2(O)[C@H]5O)[C@@H]3O)C1(C)C (some centres undefined) |  | Active | Toxic | Active | Active | inactive |  | 
3 | C[C@@H]1OC2=C(C(=O)C3(O)C(C2)N2C(=O)[C@@]45SS[C@@]2(C(=O)N4[C@H]2Nc4ccccc4C2(O)[C@H]5O)[C@@H]3O)C1(C)C (some centres undefined) |  | Active | Toxic | Active | Active | inactive |  | 
4 | CS[C@]12C(=O)N3[C@H]4Nc5ccccc5C4(O)[C@@H](O)[C@@]3(SC)C(=O)N1C1CC3=C(C(=O)C1(O)[C@H]2O)C(C)(C)[C@H](C)O3 (some centres undefined) |  |  | Non-toxic |  |  |  | inactive | inactive
